Laboratory results as given in patent publication US4735949A, “Disubstituted-7-pyrrolidinonaphthyridine antibacterial agents” (Warner-Lambert Company, priority 1987, dated 1988).
Values after ≈ are worked out from the molar mass of the structure shown. Like-named read-outs stand apart in the source and are kept apart here.

How the values were obtained:
Experiment in all cases: in vitro antibacterial activity, microtitration dilution method
Format in all cases: cell-based
[1] = system: Enterobacter cloacae MA 2646
Source text: (§1) Agents & Chemoth., 6, 124 (1974), which is incorporated herein by reference.

[2] = system: Escherichia coli Vogel; settings: read-out: Minimal Inhibitory Concentration MIC
Source text: as §1

[3] = system: Klebsiella pneumoniae MGH-2
Source text: as §1

[4] = system: Proteus rettgeri M 1771; settings: Providencia rettgeri
Source text: as §1

[5] = system: Staphylococcus aureus H 228; settings: H228; Staphylococcus aureus H 228, in vitro; read-out: Minimal Inhibitory Concentration MIC
Source text: (§2) The compounds of the invention display antibacterial activity when tested by the microtitration dilution method as described in Heifetz, et al, Antimicr. Agents & Chemoth., 6, 124 (1974), which is incorporated herein by reference.
(§3) By use of the above referenced method, the following minimum inhibitory concentration values (MICs in μg/ml) were obtained for representative compounds of the invention.

[6] = system: Staphylococcus aureus UC-76; settings: UC76; Staphylococcus aureus UC-76, in vitro; read-out: Minimal Inhibitory Concentration MIC
Source text: as §2, §3

[7] = system: Streptococcus faecalis MGH-2; settings: Enterococcus faecalis, MGH2; Streptococcus faecalis MGH-2, in vitro; read-out: Minimal Inhibitory Concentration MIC
Source text: as §2, §3

[8] = system: Streptococcus pneumoniae SV-1; settings: SV1; Streptococcus pneumoniae SV-1, in vitro; read-out: Minimal Inhibitory Concentration MIC
Source text: as §2, §3

[9] = system: Streptococcus pyogenes C-203; settings: C203; Streptococcus pyogenes C-203, in vitro; read-out: Minimal Inhibitory Concentration MIC
Source text: as §2, §3

[10] = system: Pseudomonas aeruginosa UI-18; settings: UI18; Pseudomonas aeruginosa UI-18, in vitro; read-out: Minimal Inhibitory Concentration MIC
Source text: as §1

[11] = Klebsiella pneumoniae, MGH2, read-out: Minimal Inhibitory Concentration MIC
[12] = M1771, read-out: Minimal Inhibitory Concentration MIC
[13] = MA2646, Enterobacter cloacae MA 2646, in vitro, read-out: Minimal Inhibitory Concentration MIC
[14] = M1771, Proteus rettgeri M 1771, in vitro, read-out: Minimal Inhibitory Concentration MIC

MIC ([3]; MGH2, Klebsiella pneumoniae MGH-2, in vitro, read-out: Minimal Inhibitory Concentration MIC) [µg/mL] | SMILES | MIC ([1]; Enterobacter cloacae, MA2646, read-out: Minimal Inhibitory Concentration MIC) [µg/mL] | MIC [2] [µg/mL] | MIC [3, 11] [µg/mL] | MIC [4, 12] [µg/mL] | MIC [5] [µg/mL] | MIC [6] [µg/mL] | MIC [7] [µg/mL] | MIC [8] [µg/mL] | MIC [9] [µg/mL] | MIC [1, 13] [µg/mL] | MIC [4, 14] [µg/mL] | MIC [10] [µg/mL]
 | NC1(c2ccccc2)CCN(c2c(F)cc3c(=O)c(C(=O)O)cn(C4CC4)c3c2F)C1 (centres unmarked) [Example 1, 7-[(3-Amino-3-phenyl)-1-pyrrolidinyl]-1-cyclopropyl-6,8-difluoro-1,4-dihydro-4-oxo-3-quinolinecarboxylic acid] | 0.05 (≈ 0.118 µM) | 0.05 (≈ 0.118 µM) | 0.1 (≈ 0.235 µM) | 0.1 (≈ 0.235 µM) | 0.006 (≈ 0.0141 µM) | 0.006 (≈ 0.0141 µM) | 0.05 (≈ 0.118 µM) | 0.025 (≈ 0.0588 µM) | 0.05 (≈ 0.118 µM) |  |  | 
 | NCC1CN(c2c(F)cc3c(=O)c(C(=O)O)cn(C4CC4)c3c2F)CC1c1ccccc1 (centres unmarked) [Example 2] |  |  | 0.1 (≈ 0.228 µM) |  | 0.013 (≈ 0.0296 µM) | 0.006 (≈ 0.0137 µM) | 0.013 (≈ 0.0296 µM) | 0.006 (≈ 0.0137 µM) | 0.013 (≈ 0.0296 µM) | 0.2 (≈ 0.455 µM) | 0.4 (≈ 0.91 µM) | 1.6 (≈ 3.64 µM)
0.2 (≈ 0.47 µM) | NC1CN(c2c(F)cc3c(=O)c(C(=O)O)cn(C4CC4)c3c2F)CC1c1ccccc1 (centres unmarked) [Example 3, 7-[(3-Amino-4-phenyl)-1-pyrrolidinyl]-1-cyclopropyl-6,8-difluoro-1,4-dihydro-4-oxo-3-quinolinecarboxylic acid] |  | 0.1 (≈ 0.235 µM) |  |  | 0.05 (≈ 0.118 µM) | 0.025 (≈ 0.0588 µM) | 0.1 (≈ 0.235 µM) | 0.1 (≈ 0.235 µM) | 0.1 (≈ 0.235 µM) | 0.2 (≈ 0.47 µM) | 0.4 (≈ 0.94 µM) | 1.6 (≈ 3.76 µM)
 | O=C(O)c1cn(C2CC2)c2c(F)c(N3CCC(O)(c4ccccc4)C3)c(F)cc2c1=O (centres unmarked) [Example 4, 1-Cyclopropyl-6,8-difluoro-1,4-dihydro-7-[(3-hydroxy-3-phenyl)1-pyrrolidinyl]-4-oxo-3-quinolinecarboxylic acid] |  |  | 0.1 (≈ 0.235 µM) | 0.1 (≈ 0.235 µM) | 0.003 (≈ 0.00704 µM) | 0.003 (≈ 0.00704 µM) | 0.025 (≈ 0.0586 µM) | 0.013 (≈ 0.0305 µM) | 0.05 (≈ 0.117 µM) |  |  | 
